Experimental data: PubChem BioAssay (NCI)
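Method: 48-hour compound exposure of cells in 96-well plates, five concentrations, linear interpolation of endpoints. Here, GI50 denotes the concentration required for 50% inhibition of growth. TGI denotes the concentration required for complete inhibition of growth.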

What was measured:
Assay in all cases: DTP human tumour cell line panel, 48 h
NCI-H460 lung = tested on: NCI-H460 lung
UACC-62 melanoma = tested on: UACC-62 melanoma
786-0 renal = tested on: 786-0 renal
NCI-H522 lung = tested on: NCI-H522 lung
TK-10 renal = tested on: TK-10 renal
DU-145 prostate = tested on: DU-145 prostate
U251 CNS = tested on: U251 CNS
MDA-N = tested on: MDA-N
SF-539 CNS = tested on: SF-539 CNS
BT-549 breast = tested on: BT-549 breast
M14 melanoma = tested on: M14 melanoma
PC-3 prostate = tested on: PC-3 prostate
SN12C renal = tested on: SN12C renal
HCC-2998 colon = tested on: HCC-2998 colon
SR leukemia = tested on: SR leukemia
OVCAR-8 ovarian = tested on: OVCAR-8 ovarian
SK-MEL-28 melanoma = tested on: SK-MEL-28 melanoma
COLO 205 colon = tested on: COLO 205 colon
UACC-257 melanoma = tested on: UACC-257 melanoma
SK-OV-3 ovarian = tested on: SK-OV-3 ovarian
SF-295 CNS = tested on: SF-295 CNS
CAKI-1 renal = tested on: CAKI-1 renal
NCI-H23 lung = tested on: NCI-H23 lung
OVCAR-5 ovarian = tested on: OVCAR-5 ovarian
KM12 colon = tested on: KM12 colon
EKVX NSCLC = tested on: EKVX NSCLC
K-562 leukemia = tested on: K-562 leukemia
NCI/ADR-RES ovarian = tested on: NCI/ADR-RES ovarian
OVCAR-3 ovarian = tested on: OVCAR-3 ovarian
IGROV1 ovarian = tested on: IGROV1 ovarian
SNB-19 CNS = tested on: SNB-19 CNS
OVCAR-4 ovarian = tested on: OVCAR-4 ovarian
LOX IMVI melanoma = tested on: LOX IMVI melanoma
HT29 colon = tested on: HT29 colon
SW-620 colon = tested on: SW-620 colon
HCT-15 colon = tested on: HCT-15 colon
RPMI-8226 leukemia = tested on: RPMI-8226 leukemia
HOP-62 NSCLC = tested on: HOP-62 NSCLC
HL-60(TB) leukemia = tested on: HL-60(TB) leukemia
A549 NSCLC = tested on: A549 NSCLC
MOLT-4 leukemia = tested on: MOLT-4 leukemia
MCF7 breast = tested on: MCF7 breast
CCRF-CEM leukemia = tested on: CCRF-CEM leukemia
RXF 393 renal = tested on: RXF 393 renal
SNB-75 CNS = tested on: SNB-75 CNS
MALME-3M melanoma = tested on: MALME-3M melanoma
HOP-92 NSCLC = tested on: HOP-92 NSCLC
HCT-116 colon = tested on: HCT-116 colon
ACHN renal = tested on: ACHN renal
NCI-H226 lung = tested on: NCI-H226 lung
SF-268 CNS = tested on: SF-268 CNS
SK-MEL-5 melanoma = tested on: SK-MEL-5 melanoma
UO-31 renal = tested on: UO-31 renal
MDA-MB-231 breast = tested on: MDA-MB-231 breast
A498 renal = tested on: A498 renal
HS 578T breast = tested on: HS 578T breast
T-47D breast = tested on: T-47D breast
SK-MEL-2 melanoma = tested on: SK-MEL-2 melanoma
MDA-MB-435 = tested on: MDA-MB-435

`CC[N+](C)(CC)CCNC(=O)C(O)(c1ccccc1)c1ccccc1` gave a TGI (NCI-H460 lung) of over 100 µM, a TGI (UACC-62 melanoma) of over 100 µM and a TGI (786-0 renal) of over 100 µM. For the same compound, the TGI (NCI-H522 lung) was over 100 µM, the TGI (TK-10 renal) was over 100 µM and the TGI (DU-145 prostate) was over 100 µM. For the same compound, the TGI (U251 CNS) was over 100 µM, the TGI (MDA-N) was over 100 µM and the TGI (SF-539 CNS) was over 100 µM. The TGI (BT-549 breast) was over 100 µM, the TGI (M14 melanoma) was over 100 µM and the TGI (PC-3 prostate) was over 100 µM. It also gave a TGI (SN12C renal) of over 100 µM, a TGI (HCC-2998 colon) of over 100 µM and a TGI (SR leukemia) of over 100 µM. The TGI (OVCAR-8 ovarian) was over 100 µM, the TGI (SK-MEL-28 melanoma) was over 100 µM and the TGI (COLO 205 colon) was over 100 µM. For the same compound, the TGI (UACC-257 melanoma) was over 100 µM, the TGI (SK-OV-3 ovarian) was over 100 µM and the TGI (SF-295 CNS) was over 100 µM. The TGI (CAKI-1 renal) was over 100 µM, the TGI (NCI-H23 lung) was over 100 µM and the TGI (OVCAR-5 ovarian) was over 100 µM. For the same compound, the TGI (KM12 colon) was over 100 µM, the TGI (EKVX NSCLC) was over 100 µM and the TGI (K-562 leukemia) was over 100 µM. It also gave a TGI (NCI/ADR-RES ovarian) of over 100 µM, a TGI (OVCAR-3 ovarian) of over 100 µM and a TGI (IGROV1 ovarian) of over 100 µM. It also gave a TGI (SNB-19 CNS) of over 100 µM, a TGI (OVCAR-4 ovarian) of over 100 µM and a TGI (LOX IMVI melanoma) of over 100 µM. The TGI (HT29 colon) was over 100 µM, the TGI (SW-620 colon) was over 100 µM and the TGI (HCT-15 colon) was over 100 µM. The TGI (RPMI-8226 leukemia) was over 100 µM, the TGI (HOP-62 NSCLC) was over 100 µM and the TGI (HL-60(TB) leukemia) was over 100 µM. The TGI (A549 NSCLC) was over 100 µM, the TGI (MOLT-4 leukemia) was over 100 µM and the TGI (MCF7 breast) was over 100 µM. The TGI (CCRF-CEM leukemia) was over 100 µM, the TGI (RXF 393 renal) was over 100 µM and the TGI (SNB-75 CNS) was over 100 µM. It also gave a TGI (MALME-3M melanoma) of over 100 µM, a TGI (HOP-92 NSCLC) of over 100 µM and a TGI (HCT-116 colon) of over 100 µM. For the same compound, the TGI (ACHN renal) was over 100 µM, the TGI (NCI-H226 lung) was over 100 µM and the TGI (SF-268 CNS) was over 100 µM. The TGI (SK-MEL-5 melanoma) was over 100 µM and the TGI (UO-31 renal) was over 100 µM.

Compound `COC(=O)c1c2c(c(C)[n+]([O-])c1C)C(=O)C(NCc1cccc(Cl)c1)=CC2=O` has a GI50 (NCI-H460 lung) of 0.659 µM, a TGI (NCI-H460 lung) of 7.92 µM and a GI50 (UACC-62 melanoma) of 1.24 µM. It also gave a TGI (UACC-62 melanoma) of 2.84 µM, a GI50 (786-0 renal) of 2.65 µM and a TGI (786-0 renal) of 13.9 µM. It also gave a GI50 (NCI-H522 lung) of 1.91 µM, a TGI (NCI-H522 lung) of 4.62 µM and a GI50 (MDA-MB-231 breast) of 1.18 µM. It also gave a TGI (MDA-MB-231 breast) of 4.88 µM, a GI50 (TK-10 renal) of 3.69 µM and a TGI (TK-10 renal) of 15.3 µM. It also gave a GI50 (DU-145 prostate) of 1.91 µM, a TGI (DU-145 prostate) of 4.2 µM and a GI50 (U251 CNS) of 2.1 µM. It also gave a TGI (U251 CNS) of 7.52 µM, a GI50 (SF-539 CNS) of 1.8 µM and a TGI (SF-539 CNS) of 3.26 µM. For the same compound, the GI50 (BT-549 breast) was 1.54 µM, the TGI (BT-549 breast) was 3.07 µM and the GI50 (M14 melanoma) was 1.06 µM. It also gave a TGI (M14 melanoma) of 2.4 µM, a GI50 (PC-3 prostate) of 1.62 µM and a TGI (PC-3 prostate) of 17.9 µM. It also gave a GI50 (SN12C renal) of 1.02 µM, a TGI (SN12C renal) of 2.44 µM and a GI50 (HCC-2998 colon) of 1.82 µM. The TGI (HCC-2998 colon) was 4.46 µM, the GI50 (SR leukemia) was 1.85 µM and the TGI (SR leukemia) was over 100 µM. The GI50 (A498 renal) was 1.56 µM, the TGI (A498 renal) was 3.18 µM and the GI50 (OVCAR-8 ovarian) was 1.52 µM. The TGI (OVCAR-8 ovarian) was 9.78 µM, the GI50 (HS 578T breast) was 2.32 µM and the TGI (HS 578T breast) was 6.91 µM. For the same compound, the GI50 (T-47D breast) was 1.69 µM, the TGI (T-47D breast) was 4.41 µM and the GI50 (SK-MEL-28 melanoma) was 3.17 µM. It also gave a TGI (SK-MEL-28 melanoma) of 15 µM, a GI50 (COLO 205 colon) of 0.388 µM and a TGI (COLO 205 colon) of 1.55 µM. It also gave a GI50 (UACC-257 melanoma) of 0.701 µM, a TGI (UACC-257 melanoma) of 2.28 µM and a GI50 (SK-OV-3 ovarian) of 3.05 µM. The TGI (SK-OV-3 ovarian) was 12.8 µM, the GI50 (SF-295 CNS) was 1.31 µM and the TGI (SF-295 CNS) was 2.72 µM. It also gave a GI50 (CAKI-1 renal) of 1.97 µM, a TGI (CAKI-1 renal) of 5.63 µM and a GI50 (NCI-H23 lung) of 1.23 µM. The TGI (NCI-H23 lung) was 3.25 µM, the GI50 (OVCAR-5 ovarian) was 1.81 µM and the TGI (OVCAR-5 ovarian) was 3.63 µM. It also gave a GI50 (KM12 colon) of 1.56 µM, a TGI (KM12 colon) of 9.73 µM and a GI50 (EKVX NSCLC) of 1.51 µM. It also gave a TGI (EKVX NSCLC) of 3.61 µM, a GI50 (K-562 leukemia) of 2.17 µM and a TGI (K-562 leukemia) of over 100 µM. For the same compound, the GI50 (NCI/ADR-RES ovarian) was 1.64 µM, the TGI (NCI/ADR-RES ovarian) was 5.81 µM and the GI50 (OVCAR-3 ovarian) was 0.322 µM. The TGI (OVCAR-3 ovarian) was 1.17 µM, the GI50 (IGROV1 ovarian) was 1.17 µM and the TGI (IGROV1 ovarian) was 2.98 µM. The GI50 (SNB-19 CNS) was 2.45 µM, the TGI (SNB-19 CNS) was 7.8 µM and the GI50 (OVCAR-4 ovarian) was 0.507 µM. For the same compound, the TGI (OVCAR-4 ovarian) was 1.85 µM, the GI50 (LOX IMVI melanoma) was 1.76 µM and the TGI (LOX IMVI melanoma) was 5.58 µM. The GI50 (HT29 colon) was 0.634 µM, the TGI (HT29 colon) was over 100 µM and the GI50 (SW-620 colon) was 1.01 µM. For the same compound, the TGI (SW-620 colon) was 4.31 µM, the GI50 (HCT-15 colon) was 1.1 µM and the TGI (HCT-15 colon) was 2.75 µM. For the same compound, the GI50 (RPMI-8226 leukemia) was 2.14 µM, the TGI (RPMI-8226 leukemia) was 7.81 µM and the GI50 (HOP-62 NSCLC) was 2.3 µM. The TGI (HOP-62 NSCLC) was 9.62 µM, the GI50 (HL-60(TB) leukemia) was 0.628 µM and the TGI (HL-60(TB) leukemia) was 3.55 µM. It also gave a GI50 (A549 NSCLC) of 1.94 µM, a TGI (A549 NSCLC) of 6.17 µM and a GI50 (MOLT-4 leukemia) of 2.01 µM. It also gave a TGI (MOLT-4 leukemia) of 5.68 µM, a GI50 (MCF7 breast) of 1.1 µM and a TGI (MCF7 breast) of 2.77 µM. It also gave a GI50 (CCRF-CEM leukemia) of 2.29 µM, a TGI (CCRF-CEM leukemia) of 8.53 µM and a GI50 (RXF 393 renal) of 1.48 µM. The TGI (RXF 393 renal) was 3.37 µM, the GI50 (SNB-75 CNS) was 2.1 µM and the TGI (SNB-75 CNS) was 5.07 µM. For the same compound, the GI50 (MALME-3M melanoma) was 0.171 µM, the TGI (MALME-3M melanoma) was 0.432 µM and the GI50 (HOP-92 NSCLC) was 2.22 µM. It also gave a TGI (HOP-92 NSCLC) of 4.54 µM, a GI50 (HCT-116 colon) of 0.679 µM and a TGI (HCT-116 colon) of 4.9 µM. The GI50 (ACHN renal) was 1.52 µM, the TGI (ACHN renal) was 3.58 µM and the GI50 (NCI-H226 lung) was 2.1 µM. It also gave a TGI (NCI-H226 lung) of 4.67 µM, a GI50 (SK-MEL-2 melanoma) of 1.95 µM and a TGI (SK-MEL-2 melanoma) of 4.6 µM. It also gave a GI50 (MDA-MB-435) of 0.344 µM, a TGI (MDA-MB-435) of 1.13 µM and a GI50 (SF-268 CNS) of 2.53 µM. For the same compound, the TGI (SF-268 CNS) was 12.9 µM, the GI50 (SK-MEL-5 melanoma) was 0.2 µM and the TGI (SK-MEL-5 melanoma) was 0.448 µM. For the same compound, the GI50 (UO-31 renal) was 1.53 µM and the TGI (UO-31 renal) was 3.23 µM.
